Entries after “also recorded” stand apart in the source; their conditions may differ.
Assays:
parental HEK293 cells = experiment: TLR2 functional bioassay in parental HEK293 cells (negative control); type: cell-based; conditions: ligand stimulated HEK293 cells
Text: In Vitro TLR2 Functional Bioassay The in vitro TLR2 functional bioassay was developed and optimized for use in screening soluble compound libraries to identify both TLR2 agonists and antagonists. In this study, the TLR2 functional bioassay was used as a fast high throughput screening to identify TLR2 agonist ligands by measuring the inducing activity of NF-κB. HEK293/hTLR2 cells, highly overexpressing human TLR2, were used along with the parental HEK293, cells as a negative control. […] On day 4 after 24 hrs of peptide stimulation, luciferase induced activity by the induction of NF-κB was measured. […] The luminescence intensity was measured using the standard luminescence protocol on a Victor™ X4 plate-reader equipped with a plate stacker for readout of multiple plates at a time (PerkinElmer, Waltham, Mass.). […] Data were analyzed with GraphPad Prism software and curves were generated with the appropriate nonlinear fit regression analysis.
The in vitro TLR2 functional bioassay was developed and optimized for use in high-throughput screening of soluble compound libraries to identify both TLR2 agonists and antagonists. […] On day 4 after 24 h of peptide stimulation, luciferase induced activity by the induction of NF-κB was measured. […]

[1] = test system: Trp1455/9M-specific CD8 T cells; experiment: In vivo cellular immune response assay (immune adjuvant); parameters: species or system B6 mice; conditions: for fluorescence of stained tetramer positive CD8 T cells: day 7; for maximum amount of fluorescently stained tetramer positive CD8 T cells: day 7, peripheral blood, i.v. immunization, n=3
Procedure: To assess the efficacy of T-02 as an immune adjuvant, mice were immunized i.v. with a mixture of 100 μg optimized Trp1455/9M peptide (Guevara-Patino, J. A., et al. J Clin Invest, 2006. 116(5):1382-90), 50 μg anti-CD40 mAb (Clone; FGk-45.5), and 50 μg TLR-2 peptide (T-02, Pam2CSK4, or Pam3CSK4). […] The response of tetramer+ CD8 T cells in the blood was measured on day 7, 21, and 34 by tetramer staining. For tetramer staining, peripheral blood was taken from the submandibular vein and treated briefly with ammonium chloride buffer to lyse red blood cells. Blood cells were stained with FITC-conjugated anti-MHC class II, PerCP Cy5.5-conjugated CD8a (both from eBioscience, San Diego, Calif.), and phycoerythrin-conjugated Trp1455/9M/H-2D^b tetramers (provided by the NIH tetramer Facility, Emory University, Atlanta Ga.) for 40 min in ice. Fluorescence was evaluated using a FACSCalibur™ flow cytometer (BD Biosciences) and analyzed using FlowJo software.
C57BL/6 (B6) mice 6-8 weeks old were purchased from Charles River (Wilmington, Mass.). To assess the efficacy of 10 as an immune adjuvant, B6 mice were immunized i.v. with a mixture (in a volume of 200 μl) of 100 μg optimized Trp1455/9M peptide,[10c] 50 μg anti-CD40 monoclonal antibody (Clone; FGk-45.5), and 50 μg TLR2 agonist (10, Pam2CSK4, or Pam3CSK4). […] The response of tetramer positive CD8 T cells in the blood was measured on day 7, 21 and 34 by tetramer staining. For tetramer staining, peripheral blood was taken from the submandibular vein and treated briefly with ammonium chloride buffer to lyse red blood cells. Blood cells were stained with FITC-conjugated anti-MHC class II, PerCP Cy5.5-conjugated CD8a, and phycoerythrin-conjugated Trp1455/9M/H-2D^b tetramers for 40 min in ice. Fluorescence was evaluated using a FACSCalibur flow cytometer (BD Biosciences) and analyzed using FlowJo software.

| Compound | NF-κB induced luciferase activity in non-expressing TLR2 cell line (parental HEK293 cells) | fluorescence of stained tetramer positive CD8 T cells [1] | maximum amount of fluorescently stained tetramer positive CD8 T cells [1] [%] |
| --- | --- | --- | --- |
| CCCCCCCCCCCCCCCC(=O)OCC(CSC[C@H](N)C(=O)N[C@@H](CO)C(=O)N[C@@H](CCCCN)C(=O)N[C@@H](CCCCN)C(=O)N[C@@H](CCCCN)C(=O)N[C@@H](CCCCN)C(=O)O)OC(=O)CCCCCCCCCCCCCCC (mixture of isomers) [Pam2CSK4, S-[2,3-bis(palmitoyloxy)-(2RS)-propyl]-[R]-cysteinyl-[S]-seryl-[S]-lysyl-[S]-lysyl-[S]-lysyl-[S]-lysine, reference compound] | did not exhibit significant NF-κB induced luciferase activity | High fluorescence | 56.6 |
| CCCCCCCCCCCCCCCC(=O)N[C@@H](CSCC(COC(=O)CCCCCCCCCCCCCCC)OC(=O)CCCCCCCCCCCCCCC)C(=O)N[C@@H](CO)C(=O)N[C@@H](CCCCN)C(=O)N[C@@H](CCCCN)C(=O)N[C@@H](CCCCN)C(=O)N[C@@H](CCCCN)C(=O)O (mixture of isomers) [Pam3CSK4, N-Palmitoyl-S-[2,3-bis(palmitoyloxy)-(2RS)-propyl]-[R]-cysteinyl-[S]-seryl-[S]-lysyl-[S]-lysyl-[S]-lysyl-[S]-lysine, reference compound] | did not exhibit any significant NF-κB luciferase activity; also recorded: did not exhibit significant NF-κB induced luciferase activity; also recorded: no measurable luminescence; also recorded: No activity was observed | High fluorescence | 51.7 |

Reference: patent US11458212B2, “Molecular imaging of cancer cells in vivo” (H. Lee Moffitt Cancer Center and Research Institute, Inc., priority 2011, dated 2022)
